The numbers were not newly measured in patent publication US20240182910A1, “DRUG-REGULATABLE TRANSCRIPTION FACTORS” (Senti Biosciences, Inc., priority 2021, published 2024), which cites them from elsewhere.

What all share (parameters): key to Response to inducer: T (transgene transcription): A, activation; DA, deactivation; DR, derepression; key to Response to inducer: TF (transcription factor): B, binding; D, dissociation
In one series the target is NT (HdnoR-VP16) (Paenarthrobacter nicotinovorans, UniProt Q8GAF9). The note with it: NICE-OFF; PNIC (ONIC-PhCMVmin); cited from earlier work.
The test system of a further series is NS (HdnoR-KRAB). The note with it: NICE-ON; PNIC (PSV40-ONIC8); cited from earlier work.
Another series concerns the target BIT (BirA-VP16) (Escherichia coli, UniProt P06709). The note with it: PBIT3 (OBirA3-PhCMVmin); cited from earlier work.
Another series has as its system p65-TraR. The note with it: O7x(tra box)-PhCMVmin; cited from earlier work.
For another series, the system named is cTA (CymR-VP16). The note with it: Cumate - activator; PCR5 (OCuO6-PhCMVmin); cited from earlier work.
The subject of a further series is rcTA (rCymR-VP16). The note with it: Cumate - reverse activator; PCR5 (OCuO6-PhCMVmin); cited from earlier work.
The target in another series is CymR (Pseudomonas putida, UniProt O33453). The note with it: Cumate - repressor; PCuO (PCMV5-OCuO); cited from earlier work.
The next series deals with REDOX (REX-VP16) (Streptomyces coelicolor, UniProt Q9WX14). The note with it: PROP (OROP-PhCMVmin); cited from earlier work.
Another series has as its target TtgA1 (TtgR-VP16) (Pseudomonas putida, UniProt Q9AIU0). The note with it: PEACE; PTtgR1 (OTtgR-PhCMVmin); cited from earlier work.
A further series has as its system SCA (ScbR-VP16). The note with it: QuoRex; PSCA (OscbR-PhCMVmin)PSPA (OpapRI-PhCMVmin); cited from earlier work.
The subject of another series is SCS (ScbR-KRAB). The note with it: Q-ON; PSCAON8 (PSV40-OscbR8); cited from earlier work.
For another series, the system named is SCAPIT3. The note with it: QuoRexPIP-ON (NOT IF gate); OscbR8-OPIR3-PhCMVmin; cited from earlier work.
The test system of a further series is SCAE-KRAB. The note with it: QuoRexE-ON (NOT IF gate); OscbR-OETR8-PhCMVmin; cited from earlier work.
The test system of another series is mUTS (KRAB-HucR). The note with it: UREX; PUREX8 (PSV40-OhucO8); cited from earlier work.
The subject of another series is VanA1 (VanR-VP16). The note with it: VAC-OFF; P1VanO2 (OVanO2-PhCMVmin); cited from earlier work.
For a further series, the system named is VanA4 (VanR-KRAB). The note with it: VAC-ON; PVanON8 (PhCMV-OVanO8); cited from earlier work.
Another series relates to PIT (PIP-VP16). The note with it: PIP-OFF; PPIR (OPIR-Phsp70 min); cited from earlier work.
The next series has as its system PIT3 (PIP-KRAB). The note with it: PIP-ON; PPIRON (PSV40-OPIR3); cited from earlier work.
In another series the test system is tTAPIT3E-KRAB. The note with it: TET-OFFPIP-ONE-ON; OtetO7-OPIR3-OETR8-PhCMVmin; cited from earlier work.

Sequence of NT (HdnoR-VP16) (Q8GAF9 whole entry, added parts left off): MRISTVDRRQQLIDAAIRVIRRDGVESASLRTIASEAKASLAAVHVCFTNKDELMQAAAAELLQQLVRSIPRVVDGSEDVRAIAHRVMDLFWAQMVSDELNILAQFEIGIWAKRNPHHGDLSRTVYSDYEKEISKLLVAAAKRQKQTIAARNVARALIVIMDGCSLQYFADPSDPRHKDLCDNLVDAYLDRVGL
Sequence of BIT (BirA-VP16) (P06709 whole entry, added parts left off): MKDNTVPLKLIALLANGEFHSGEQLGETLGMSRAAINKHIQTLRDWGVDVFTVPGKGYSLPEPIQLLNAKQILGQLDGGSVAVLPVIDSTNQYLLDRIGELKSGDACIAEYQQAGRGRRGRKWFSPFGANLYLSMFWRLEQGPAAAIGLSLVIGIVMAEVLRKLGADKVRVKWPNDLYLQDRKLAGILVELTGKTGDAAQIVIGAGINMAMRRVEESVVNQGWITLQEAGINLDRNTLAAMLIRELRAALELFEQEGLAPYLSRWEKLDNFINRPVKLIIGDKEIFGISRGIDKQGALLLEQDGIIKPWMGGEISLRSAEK
Sequence of TtgA1 (TtgR-VP16) (Q9AIU0 whole entry, added parts left off): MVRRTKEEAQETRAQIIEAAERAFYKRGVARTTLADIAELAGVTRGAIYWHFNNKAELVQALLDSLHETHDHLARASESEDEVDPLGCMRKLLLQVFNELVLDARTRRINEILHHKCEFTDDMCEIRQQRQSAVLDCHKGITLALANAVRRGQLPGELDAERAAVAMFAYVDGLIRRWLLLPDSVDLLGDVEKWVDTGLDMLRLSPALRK
Sequence of CymR (O33453 whole entry): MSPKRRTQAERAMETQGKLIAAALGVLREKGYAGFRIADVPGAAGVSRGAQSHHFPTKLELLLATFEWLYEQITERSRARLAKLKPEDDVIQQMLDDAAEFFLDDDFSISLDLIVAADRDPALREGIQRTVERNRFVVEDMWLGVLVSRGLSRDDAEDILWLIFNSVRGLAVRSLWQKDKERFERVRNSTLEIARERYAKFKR
Sequence of REDOX (REX-VP16) (Q9WX14 whole entry, added parts left off): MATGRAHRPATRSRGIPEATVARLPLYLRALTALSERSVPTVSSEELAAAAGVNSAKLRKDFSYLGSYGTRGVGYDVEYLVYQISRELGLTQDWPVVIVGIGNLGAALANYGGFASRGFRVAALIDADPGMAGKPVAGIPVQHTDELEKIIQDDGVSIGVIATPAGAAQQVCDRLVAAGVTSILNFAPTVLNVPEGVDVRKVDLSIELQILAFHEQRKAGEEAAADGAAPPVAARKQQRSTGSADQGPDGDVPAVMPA

Consider `CN1CCCC1c1ccc(O)nc1` (stereo not shown) [6-Hydroxy-nicotine], for which the “Response to inducer: T (transgene transcription)” value is given as “DA” at NT (HdnoR-VP16) and “DR” with NS (HdnoR-KRAB). Besides, the “Response to inducer: TF (transcription factor)” value (“Response to inducer: TF” for short) on NT (HdnoR-VP16) and with NS (HdnoR-KRAB) was “D” throughout.

In the case of `O=C(O)CCCC[C@@H]1SC[C@@H]2NC(=O)N[C@@H]21` [Biotin], on BIT (BirA-VP16), the “Response to inducer: T (transgene transcription)” value is “A” and the “Response to inducer: TF” value is recorded as “B”.

With `CCCCCC(=O)CC(=O)N[C@H]1CCOC1=O` [Construct 3-Oxo-C8-HSL, 3-Oxo-C8-HSL], in the series on p65-TraR, the “Response to inducer: T (transgene transcription)” value is “A” and the “Response to inducer: TF” value is “B”.

With `CC(C)c1ccc(C(=O)O)cc1` [Cumate], the figures for the “Response to inducer: T (transgene transcription)” value with cTA (CymR-VP16), in the series on rcTA (rCymR-VP16) and at CymR were “DA”, “A” and “DR”, respectively. Moreover, the “Response to inducer: TF” value in the series on cTA (CymR-VP16) is reported as “D”; with rcTA (rCymR-VP16), “B”; on CymR it was “D”.

Regarding `NC(=O)C1=CN([C@@H]2O[C@H](COP(=O)(O)OP(=O)(O)OC[C@H]3O[C@@H](n4cnc5c(N)ncnc54)[C@H](O)[C@@H]3O)[C@@H](O)[C@H]2O)C=CC1` [NADH], on REDOX (REX-VP16), the “Response to inducer: T (transgene transcription)” value is on record as “DA” and the “Response to inducer: TF” value was “D”.

For `O=C(CCc1ccc(O)cc1)c1c(O)cc(O)cc1O` [Phloretin], at TtgA1 (TtgR-VP16), the “Response to inducer: T (transgene transcription)” value is “DA” and the “Response to inducer: TF” value is listed as “D”.

Take `CC(C)CCCC[C@@H](O)[C@@H]1C(=O)OC[C@H]1CO` [SCB1]: the “Response to inducer: T (transgene transcription)” value in the series on SCA (ScbR-VP16) was “DA”; with SCS (ScbR-KRAB) it was “DR”; in the series with SCAPIT3, “DA”; in the series on SCAE-KRAB it was “DA”. In addition, the “Response to inducer: TF” value with SCA (ScbR-VP16), in the series on SCS (ScbR-KRAB), in the series with SCAPIT3 and in the series on SCAE-KRAB was “D” throughout.

In the case of `O=c1[nH]c(=O)c2[nH]c(=O)[nH]c2[nH]1` [Uric acid], in the series on mUTS (KRAB-HucR), the “Response to inducer: T (transgene transcription)” value is “DR” and the “Response to inducer: TF” value is on record as “D”.

For the compound `COc1cc(C(=O)O)ccc1O` [Vanillic acid], in the series on VanA1 (VanR-VP16), the “Response to inducer: T (transgene transcription)” value was “DA” and the “Response to inducer: TF” value is recorded as “D”. Also, in the series on VanA4 (VanR-KRAB), the “Response to inducer: T (transgene transcription)” value is on record as “DR” and the “Response to inducer: TF” value is recorded as “D”.

With Pristinamycin I, the “Response to inducer: T (transgene transcription)” value with PIT (PIP-VP16) is “DA”; in the series with PIT3 (PIP-KRAB), “DR”; in the series with SCAPIT3, “DR”; with tTAPIT3E-KRAB, “DR”. Moreover, the “Response to inducer: TF” value in the series with PIT (PIP-VP16), with PIT3 (PIP-KRAB), in the series with SCAPIT3 and in the series on tTAPIT3E-KRAB was “D” throughout.
